The values below come from patent US9512176B2, “Age inhibitors” (Centre National de la Recherche Scientifique, priority 2005, dated 2016).

Non-standard residues stand in square brackets, D forms with d. Residues, ends and D or L forms follow the SMILES beside them. Dap = NC[C@H](N)C(=O)O

In one series the test system is ribonuclease A. The series can be described thus: Enzymatic activity of ribonuclease A after treatment with methylglyoxal and inhibitors (methylene blue RNA staining). The series is classed as biochemical. The note with it: ribonuclease A treated with methylglyoxal (MG) + inhibitor in equimolar quantity, 37° C.; control RNase 100, RNase + methylglyoxal 10.11%. As to the method: Ribonuclease A and lysozyme (10 mg/ml) are incubated in the presence of methylglyoxal (10 mM) or in the presence of methylglyoxal and one of the inhibitors according to the present invention in an equimolar quantity at 37° C. After 48 hours of incubation, the proteins are analyzed by polyacrylamide gel electrophoresis (8%-16% SDS PAGE gel).
The enzymatic activity of ribonuclease A after treatment with methylglyoxal and the various inhibitors according to the present invention is measured using the methylene blue RNA staining technique of Greiner-Stöffele et al. (Anal. Biochem. (1996) 240, 24).

A further series deals with somatostatin-14. Description: Somatostatin-14 modifications induced by methylglyoxal (HPLC). The format is biochemical. The note with it: somatostatin-14 0.03 mm, methylglyoxal 3.6 mM, compound 4.3 mM, 24 hours at 37° C. As to the method:
FIGS. 9 and 10 present the results obtained by HPLC for two compounds according to the present invention, L-DAPA-L-Leu (example 1) and L-DAPA-L-Val (example 23), on somatostatin-14 modifications induced by methylglyoxal. HPLC conditions are as follows: C-18, Symmetry 300 (4.6×250 mm) column, injection volume 100 μl of reaction mixture; flow 1 ml/min; solvent A: H2O+0.1% TFA; solvent B: 80/20 CH3CN/H2O+0.1% TFA; linear gradient: from 20% B to 60% B in 15 minutes and isocratic from 60% B for 10 minutes; ambient temperature; detection: PDA (chromatograms extracted at 215 nm).
In these figures, (a) represents the results of somatostatin-14 alone; (b) represents the results of somatostatin-14+methylglyoxal; (c) represents the results of somatostatin-14+methylglyoxal+L-DAPA-L-Val (example 23) and (d) represents the results of somatostatin-14+methylglyoxal+L-DAPA-L-Leu (example 1).

A further series has as its system Human insulin. Description: Modification of insulin by methylglyoxal (HPLC). The series is classed as biochemical. The note with it: insulin 0.034 mM, methylglyoxal 3.4 mM, scavenger 4.08 mM, pH 7.45, 37° C. As to the method:
FIG. 1 presents the comparative effects of dicarbonyl scavengers in the form of dihydrochloride according to the present invention and the comparison with DAPA on the modification of insulin (Ins) by methylglyoxal (MG). The percentage of insulin is indicated following incubation with methylglyoxal in the presence or absence of dicarbonyl scavengers. Insulin (0.034 mM) is incubated in vitro in a 10 mM phosphate buffer, pH 7.45 (containing 0.1 M NaCl) with methylglyoxal (3.4 mM) in the presence of dicarbonyl scavengers (4.08 mM) for 21 hours at 37° C. Insulin concentration is measured by HPLC (same conditions as in FIG. 3).
FIGS. 3 to 8 present the results obtained by HPLC for two compounds according to the present invention, L-DAPA-L-Leu (example 1) and L-DAPA-L-Val (example 23), on insulin modifications induced by methylglyoxal. It can be observed that these modifications are prevented. The HPLC conditions are as follows: C-18, Symmetry 300 (4.6×250 mm) column, injection volume 100 μl of reaction mixture; flow 1 ml/min; temperature 40° C.; solvent A: H2O+0.1% TFA; solvent B: 60/40 CH3CN/H2O+0.1% TFA; linear gradient of 50% B to 55% B in 15 minutes; detection: UV at 215 nm: PDA (chromatograms extracted at 220 nm).
Human insulin (Ins) is incubated with methylglyoxal (MG) under physiological conditions. After 24 hours, the insulin is completely modified, as illustrated in FIG. 1 (Ins+MG).
On the other hand, insulin is incubated with methylglyoxal in the presence of an equimolar quantity of the AGE inhibitors according to the present invention under physiological conditions.

The next series concerns glyoxalase I. Description: Glyoxalase I treated with methylglyoxal: non-denaturing electrophoresis and enzymatic activity. The format is biochemical. As to the method: MG reacts with a protein's lysine and arginine residues, thus altering the charges on the modified polypeptide. […] The exposure of glyoxalase I to MG (10 mM) for 24 hours increases the mobility of the protein toward the positive electrode, a change that is consistent with the loss of positive charges from the ε-amino and guanidino groups and the gain of negative charges.
The incubation of glyoxalase I, a key protein in the α-oxoaldehyde detoxification system, in the presence of methylglyoxal, modifies the protein. This modification causes a change in charge and a 50% decrease in enzymatic activity compared to the control.

The subject of a further series is EA.hy 926 cell line. Description: Growth of EA.hy 926 endothelial cells with MG scavengers and/or methylglyoxal (MTT). The format is cell-based, human. As to the method: The cells used for the test are from the EA.hy 926 cell line, which are endothelial cells obtained by the hybridization of human umbilical vein endothelial cells (HUVECs) with lung cancer cells (A549). The EA.hy 926 endothelial cells are incubated in Dulbecco's modified Eagle's Medium (DMEM) enriched with 10% fetal calf serum. The cells are incubated in 12-well plates. Each well initially contains 100,000 cells. Cell growth is achieved by incubating the cells in 2 ml of culture medium after adding or not adding the various potential inhibitors (1 mM) and/or methylglyoxal (600 μM) for 48 hours at 37° C. in a moist atmosphere with 5% CO2.
The number of cells is evaluated in the following way:
The cells are stained using the (4,5-dimethylthiazol-2-yl)-2,5-diphenyltetrazolium bromide (MTT) assay. MTT penetrates in the cell where it is converted into formazan. The quantity of formazan formed is proportional to the number of living cells.
The results are expressed as a relative percentage of the number of cells after treatment compared to the number of control cells without treatment [100*OD (treated cells)/OD (control cells)]. Detection is carried out by UV/visible spectrophotometry at 570 nm.
Principle: MTT (yellow) penetrates the cell and is converted into an insoluble blue compound, formazan, by cleavage of its tetrazolium rings by the mitochondrial dehydrogenase enzymes of living cells. Formazan is solubilized by isopropanol. The number of cells is proportional to the quantity of formazan formed and its absorbance.

In a further series the test system is RNase A. Description: RNase A modifications induced by methylglyoxal (HPLC). The format is biochemical. To be noted: RNase A 0.08 mM, methylglyoxal 32 mM, compound 38 mM, 21 hours at 37° C. As to the method: FIGS. 11 to 13 present the results obtained by HPLC for three compounds according to the present invention, L-DAPA-L-Ile (example 18), L-DAPA-L-Val (example 23) and L-DAPA-L-Leu (example 1), on RNase A modifications induced by methylglyoxal. HPLC conditions are as follows: C-18, Symmetry 300 (4.6×250 mm) column, injection volume 100 μl of reaction mixture diluted to 1/10; flow 1 ml/min; temperature 40° C.; solvent A: H2O+0.1% TFA; solvent B: 60/40 CH3CN/H2O+0.1% TFA; linear gradient of 20% B to 80% B in 20 minutes; detection: UV at 215 nm: PDA (chromatograms extracted at 215 nm).

Take `CC(C)C[C@H](NC(=O)[C@@H](N)CN)C(=O)O` [example 1, L-DAPA-L-Leu.2HCl] (H-[Dap]-Leu-OH): the “Enzymatic activity (%)” value with ribonuclease A turned out to be 93.91%. Besides, the “somatostatin-14 modifications induced by methylglyoxal” value with somatostatin-14 is “prevent the modifications induced by methylglyoxal”. Also, in the series with Human insulin, the “modification of insulin by methylglyoxal” value is on record as “prevented”. In addition, the “gain of negative charge of glyoxalase I exposed to MG” value with glyoxalase I (MG 10 mM, 24 hours, non-denaturing electrophoresis) is “inhibits the gain of negative charge”. Besides, the “inhibition of glyoxalase I enzymatic activity and structural modification by methylglyoxal” value with glyoxalase I (MG alone: 50% decrease in enzymatic activity) was “prevents the inhibition exerted by methylglyoxal and protects against structural modifications”. Moreover, in the series on EA.hy 926 cell line, the “cell survival when incubated with MG” value came out at 81%. For the same molecule, the viability at 1000 µM in the series with EA.hy 926 cell line (Homo sapiens, EA.hy 926, scavenger 1 mM + methylglyoxal 600 μM, 48 hours, relative to untreated control cells, MG alone 24, mean of 3 experiments, read-out: Cells + MG scavengers + Methylglyoxal (B)) was determined as 81%. Also, the “Difference (B) − (A)” value in the series on EA.hy 926 cell line (Table 2, cells with scavenger + MG minus cells with scavenger alone) was −13. Moreover, the “Cells + MG scavengers (A)” value with EA.hy 926 cell line (scavenger 1 mM, no methylglyoxal, 48 hours, number of cells relative to untreated control cells, mean of 3 experiments) came to 94%. Also, in the series on EA.hy 926 cell line (scavenger + methylglyoxal), the “effect against suppression of cell growth by MG” value is given as “same trend”. For the same molecule, in the series with EA.hy 926 cell line (values in brackets), the “difference between number of cells growing with compound and with MG and compound” value is recorded as −13. In addition, in the series with RNase A, the “RNase A modifications induced by methylglyoxal” value is given as “prevent the modifications to RNase A”.
